Test results reported in US20090176762A1, “JNK Inhibitors for Treatment of Skin Diseases” (LABORATOIRES SERONO SA, priority 2006, published 2009).

System: DNFB-induced ear swelling
Assay: Contact hypersensitivity model in mice (CHS), DNFB-induced ear swelling
Format: in vivo
Conditions: 30 mg/kg p.o., 30 minutes before challenge; DNFB-sensitized Balb/C mice; p<0.05 vs sensitized; FIG. 4
Description: Balb/C female mice of about 8-12 weeks of age (18-22 g b.w.) were used for the Contact Hypersensitivity model. They were from Charles River Italia (Calco, Italy) and housed under the following constant environmental conditions: temperature 22° C.±2, relative humidity 55%±10, 15-20 air changes per hour (filtered on HEPA 99.99%) and artificial light with a 12-hour circadian cycle (7 a.m.-7 p.m.). All in vivo studies were performed according to the European Council Directive 86/609/EEC and the Italian Ministry guidelines for the care and use of experimental animals (decree #116/92). All the experimental protocols were authorized by the Italian Ministry of Health.
All chemicals were purchased from Sigma-Aldrich (St. Louis, Mo., USA) unless otherwise specified. […]
For the induction of CHS, 8-12 weeks old Balb/C mice, were sensitized by applying once a sensitizing solution of 35 μl of 0.5% DNFB in acetone/olive oil (4:1) on the shaved back. […] Ear thickness was monitored using a caliper at day 0, at day 5 (4 h, 8 h), at day 6 (24 h) and at day 7 (48 h). […] Ear thickness of both ears was measured at three point each, ear swelling was evaluated according to the following formula: […]
All values in the text and figures are presented as mean±SEM of (n) independent experiments. All data were analysed by one-way ANOVA followed by Tukey test. […]

In the case of N#CC(c1ccnc(OCc2ccc(CN3CCOCC3)cc2)n1)c1nc2ccccc2s1 (stereo not shown) [JNK inhibitor, 1,3-benzothiazol-2-yl(2-{[4-(morpholin-4-ylmethyl)benzyl]oxy}pyrimidin-4-yl)acetonitrile], the ear swelling is reported as “significantly reduced ear swelling”.
